Results reported in US8722088B2, “Pharmaceutical compositions and methods for the treatment of prostate cancer” (Ferring International Center S.A., priority 2009, dated 2014).
Where a SMILES comes first, the peptide text is derived from it. [ ]: non-standard residue; d: D form. The star is where a group is joined. dPhe(4-NHCONH2) = NC(=O)Nc1ccc(C[C@@H](N)C(=O)O)cc1; Dihydroorotyl(S) = O=C1C[C@@H](C(=O)*)NC(=O)N1; dPhe(4-Cl) = N[C@H](Cc1ccc(Cl)cc1)C(=O)O; Phe(4-NH2) = Nc1ccc(C[C@H](N)C(=O)O)cc1; d2Nal = N[C@H](Cc1ccc2ccccc2c1)C(=O)O; Lys(iPr) = CC(C)NCCCC[C@H](N)C(=O)O; d3Pal = N[C@H](Cc1cccnc1)C(=O)O

What was measured:
PSA = experiment: Clinical trial CS18: PSA change from baseline; type: in vivo, human; conditions: Total (both arms); Last visit
Protocol: PSA is a commonly used marker in the diagnosis of prostate cancer and has more recently also been used to monitor response to treatment as well as disease recurrence and progression (Fleming et al. (2006) Nat. Clin. Pract. Oncol. 3: 658-68; Lilja, et al. (2008) Nat. Rev. Cancer 8: 268-78). In general, higher levels of PSA are associated with more severe forms of prostate cancer, with metastatic stage prostate cancer being associated with the highest level of PSA (e.g., >50 ng/mL). Accordingly, rising PSA levels in patients undergoing prostate cancer treatment are associated with incomplete or failed efficacy of the treatment. Here, there were further reductions in PSA after Month 1 and the median reductions were sustained throughout the study period (median reductions of 96-97%).

serum testosterone [1] = experiment: Clinical trial CS18 (Phase 2, three-month dosing regimen): serum testosterone ≦0.5 ng/mL; type: in vivo, human; conditions: for cumulative probability of testosterone ≦0.5 ng/mL, Kaplan-Meier estimate / number of patients with testosterone > 0.5 ng/mL: Day 28 to Day 364; for cumulative probability of testosterone ≦0.5 ng/mL, Kaplan-Meier estimate / proportion of patients with testosterone ≦0.5 ng/mL: ITT
Protocol: The present study included a starting degarelix dose of 240 mg (with a concentration of 40 mg/mL of solvent), followed by maintenance doses of degarelix: i.e., 360 mg (with a concentration of 60 mg/mL of solvent) or 480 mg (with a concentration of 60 mg/mL of solvent), the latter administered at Months 1, 4, 7, and 10.
The study was open labeled and patients received a starting dose of 240 mg (with a concentration of 40 mg/mL of solvent) at Month 0 followed by one of two degarelix maintenance dose treatment regimens: 360 mg (with a concentration of 60 mg/mL of solvent) at Months 1, 4, 7, and 10; or 480 mg (with a concentration of 60 mg/mL of solvent) at Months 1, 4, 7, and 10.
The starting dose was administered subcutaneously as two injections of 120 mg (with a concentration of 40 mg/ml of solvent, given as 2×3 mL injections). After 28 days a maintenance dose of 360 mg (with a concentration of 60 mg/mL, given as 2×3 mL injections) or 480 mg (with a concentration of 60 mg/mL, given as 2×4 mL injections) was administered, also in two injections (each of 240 mg). Thereafter, with three monthly intervals, maintenance doses were given, again in the form of two injections. […] At each visit, serum testosterone, prostate specific androgen (PSA), and plasma concentration of degarelix were measured by techniques well known in the art.

clinical = conditions: human, in vivo
Excerpt: (§1) Throughout the ongoing degarelix development program, population pharmacokinetic/pharmacodynamic (PK/PD) modeling and simulations have been employed to get a better understanding of the PK and PD data, and the relationship between these and other parameters. […] Because of the variability in the population, it was considered that this median plasma concentration might not be sufficient to maintain long-term testosterone suppression in approximately 95% of the patients. It was therefore proposed that the dose administered should produce mean serum trough degarelix levels of >9 ng/ml or higher in the Phase 3 studies for the one-month dosing regimen program.

serum testosterone [2] = experiment: Previous studies, population PK/PD: proportion of patients with serum testosterone ≦0.5 ng/mL versus plasma degarelix concentration; type: in vivo, human
Excerpt: as §1
The relationship between proportion of patients castrated [(T)≦0.5 ng/mL] and degarelix concentration after day 28 is illustrated in FIG. 1. FIG. 1 is based on data from 1473 prostate cancer patients in clinical studies by dividing PK levels into intervals 0-1, 1-2, 2-3 ng/mL and so forth and plotting observed proportions against PK interval midpoints together with a smoothing line with 95% confidence interval (CI). Based on this information, approximately 97% of the patients are castrated provided that degarelix concentrations stay above a threshold value of 9-10 ng/mL.

[3] = human, in vivo, 80 mg

**Q.** For `CC(=O)N[C@H](Cc1ccc2ccccc2c1)C(=O)N[C@H](Cc1ccc(Cl)cc1)C(=O)N[C@H](Cc1cccnc1)C(=O)N[C@@H](CO)C(=O)N[C@@H](Cc1ccc(NC(=O)[C@@H]2CC(=O)NC(=O)N2)cc1)C(=O)N[C@H](Cc1ccc(NC(N)=O)cc1)C(=O)N[C@@H](CC(C)C)C(=O)N[C@@H](CCCCNC(C)C)C(=O)N1CCC[C@H]1C(=O)N[C@H](C)C(N)=O` [Degarelix, D-Alaninamide, N-acetyl-3-(2-naphthalenyl)-D-alanyl-4-chloro-D-phenylalanyl-3-(3-pyridinyl)-D-alanyl-L-seryl-4-[[[(4S)-hexahydro-2,6-dioxo-4-pyrimidinyl]carbonyl]amino]-L-phenylalanyl-4-[(aminocarbonyl)amino]-D-phenylalanyl-L leucyl-N6-(1-methylethyl)-L-lysyl-L-prolyl] (Ac-[d2Nal][dPhe(4-Cl)][d3Pal]S[Phe(4-NH2)](Dihydroorotyl(S))[dPhe(4-NHCONH2)]L[Lys(iPr)]P[dA]-NH2), which “PSA, Median % Change from Baseline” value (PSA) is on record?
**A.** −96.8%

**Q.** And the “cumulative probability of testosterone ≦0.5 ng/mL, Kaplan-Meier estimate” value (“cumulative probability” for short) (serum testosterone [1]; 360 mg (60 mg/mL) maintenance Months 1,4,7,10 after 240 mg start)?
**A.** 89.0%

**Q.** And the “cumulative probability” value (serum testosterone [1]; 360 mg (60 mg/mL) maintenance Months 1,4,7,10 after 240 mg start, listed as degarelix)?
**A.** 89.0%

**Q.** What about the “patients with sustained testosterone suppression over the course of the observed time period” value (serum testosterone [1]; 360 mg (60 mg/mL) maintenance dose) of the same compound?
**A.** at least 90%

**Q.** And the “cumulative probability” value (serum testosterone [1]; 480 mg (60 mg/mL) maintenance Months 1,4,7,10 after 240 mg start)?
**A.** 93.3%

**Q.** What about the “cumulative probability” value (serum testosterone [1]; 480 mg (60 mg/mL) maintenance Months 1,4,7,10 after 240 mg start, listed as degarelix) of the same compound?
**A.** 93.3%

**Q.** And the “patients with sustained testosterone suppression over the course of the observed time period” value (serum testosterone [1]; 480 mg (60 mg/mL) maintenance dose)?
**A.** > 95%

**Q.** And the “coverage probability (confidence of true suppression rate being greater than 90%)” value (serum testosterone [1]; 360/60 mg)?
**A.** 39.7%

**Q.** And the “proportion of patients with testosterone ≦0.5 ng/mL” value (“proportion of patients” for short) (serum testosterone [1]; 360/60 mg, Day 28)?
**A.** 98.5%

**Q.** And the “proportion of patients” value (serum testosterone [1]; 360/60 mg, Day 56)?
**A.** 100%

**Q.** And the “proportion of patients” value (serum testosterone [1]; 360/60 mg, Day 84)?
**A.** 100%

**Q.** And the “proportion of patients” value (serum testosterone [1]; 360/60 mg, Day 112)?
**A.** 96.8%

**Q.** And the “proportion of patients” value (serum testosterone [1]; 360/60 mg, Day 140)?
**A.** 100%

**Q.** What about the “proportion of patients” value (serum testosterone [1]; 360/60 mg, Day 168) of the same compound?
**A.** 98.4%

**Q.** What about the “proportion of patients” value (serum testosterone [1]; 360/60 mg, Day 196 (before re-dosing at Month 7)) of the same compound?
**A.** 90.6%

**Q.** And the “proportion of patients” value (serum testosterone [1]; 360/60 mg, Day 196 (before re-dosing at Month 7), listed as degarelix)?
**A.** 90.6%

**Q.** What about the “proportion of patients” value (serum testosterone [1]; 360/60 mg, Day 224) of the same compound?
**A.** 98.4%

**Q.** What about the “proportion of patients” value (serum testosterone [1]; 360/60 mg, Day 252) of the same compound?
**A.** 98.4%

**Q.** And the “proportion of patients” value (serum testosterone [1]; 360/60 mg, Day 280 (before re-dosing at Month 10))?
**A.** 93.3%

**Q.** And the “proportion of patients” value (serum testosterone [1]; 360/60 mg, Day 280 (before re-dosing at Month 10), listed as degarelix)?
**A.** 93.3%

**Q.** And the “proportion of patients” value (serum testosterone [1]; 360/60 mg, Day 308)?
**A.** 100%

**Q.** And the “proportion of patients” value (serum testosterone [1]; 360/60 mg, Day 336)?
**A.** 96.7%

**Q.** What about the “proportion of patients” value (serum testosterone [1]; 360/60 mg, Day 364) of the same compound?
**A.** 95.0%

**Q.** What about the “number of patients with testosterone > 0.5 ng/mL” value (shortened to “number of patients”) (serum testosterone [1]; 360/60 mg, N=67) of the same compound?
**A.** 7

**Q.** What about the “coverage probability (confidence of true suppression rate being greater than 90%)” value (serum testosterone [1]; 360/60 mg, listed as degarelix) of the same compound?
**A.** 39.7%

**Q.** And the “coverage probability (confidence of true suppression rate being greater than 90%)” value (serum testosterone [1]; 480/60 mg)?
**A.** 79.9%

**Q.** What about the “proportion of patients” value (serum testosterone [1]; 480/60 mg, Day 28) of the same compound?
**A.** 98.4%

**Q.** What about the “proportion of patients” value (serum testosterone [1]; 480/60 mg, Day 56) of the same compound?
**A.** 98.4%

**Q.** And the “proportion of patients” value (serum testosterone [1]; 480/60 mg, Day 84)?
**A.** 98.4%

**Q.** And the “proportion of patients” value (serum testosterone [1]; 480/60 mg, Day 112)?
**A.** 96.7%

**Q.** What about the “proportion of patients” value (serum testosterone [1]; 480/60 mg, Day 140) of the same compound?
**A.** 98.3%

**Q.** And the “proportion of patients” value (serum testosterone [1]; 480/60 mg, Day 168)?
**A.** 98.3%

**Q.** And the “proportion of patients” value (serum testosterone [1]; 480/60 mg, Day 196)?
**A.** 98.3%

**Q.** What about the “proportion of patients” value (serum testosterone [1]; 480/60 mg, Day 224) of the same compound?
**A.** 98.3%

**Q.** And the “proportion of patients” value (serum testosterone [1]; 480/60 mg, Day 252)?
**A.** 100%

**Q.** And the “proportion of patients” value (serum testosterone [1]; 480/60 mg, Day 280)?
**A.** 98.2%

**Q.** What about the “proportion of patients” value (serum testosterone [1]; 480/60 mg, Day 308) of the same compound?
**A.** 100%

**Q.** And the “proportion of patients” value (serum testosterone [1]; 480/60 mg, Day 336)?
**A.** 100%

**Q.** And the “proportion of patients” value (serum testosterone [1]; 480/60 mg, Day 364)?
**A.** 96.3%

**Q.** And the “number of patients” value (serum testosterone [1]; 480/60 mg, N=66)?
**A.** 4

**Q.** What about the “coverage probability (confidence of true suppression rate being greater than 90%)” value (serum testosterone [1]; 480/60 mg, listed as degarelix) of the same compound?
**A.** 79.9%

**Q.** What about the “cumulative probability” value (serum testosterone [1]; Total (480 mg and 360 mg arms)) of the same compound?
**A.** 92.8%

**Q.** And the “proportion of patients” value (serum testosterone [1]; Total (both arms, after 240 mg starting dose), Day 28)?
**A.** 98.4%

**Q.** And the “proportion of patients” value (serum testosterone [1]; Total (both arms, after 240 mg starting dose), Day 28, listed as degarelix)?
**A.** 98%

**Q.** And the “number of patients” value (serum testosterone [1]; Total, N=133)?
**A.** 11

**Q.** What about the level at 672 h (clinical) of the same compound?
**A.** 7.34 ng/mL

**Q.** And the level at 2016 h (clinical)?
**A.** 4.54 ng/mL

**Q.** What about the “patients achieving serum testosterone ≦0.5 ng/mL” value (serum testosterone [2]; Day 28, median trough plasma degarelix 7.34 ng/mL) of the same compound?
**A.** 96%

**Q.** What about the “patients having testosterone ≦0.5 ng/mL” value (serum testosterone [2]; Day 84, median plasma degarelix 4.54 ng/mL) of the same compound?
**A.** 83%

**Q.** And the “mean trough levels of degarelix” value [3]?
**A.** approximately 12 ng/mL
